Data set [1] is classed as physicochemical. The note with it: for cloud point: 0.1 wt % EHEC, 0.1M Li2SO4. On the procedure:
Surfactant-ethyl(hydroxylethyl) cellulose (EHEC) interactions were characterized by observing the clouding temperature of solutions of EHEC containing various concentrations of surfactant.
Sample Preparation. Three samples of each solution were prepared to assess reproducibility. […] The EHEC solution was filtered through 0.22 μm GV Millipore filter, placed under vacuum for 30-45 minutes, then bubbled with argon for another 30-45 minutes. This deaeration procedure was performed for all solutions, including solutions of DTAB.
The solutions of polymer, salt, and surfactant were then mixed to form 0.1 wt % EHEC, 0.1M Li2SO4, and the desired concentration of surfactant. These solutions were deaerated three times and bubbled with argon inside airtight containers. These solutions were stored at 25° C. and measured after 3 hours and 1 day.
They were simply filtered, mixed to the desired concentrations, and stored for one day before measurements of cloud points and light scattering were performed.
Cloud Point Measurements. Solution of EHEC and surfactant were immersed in a temperature bath controlled to within 0.1° C. The temperature was increased by 1° C. every 10 minutes and the solutions were visually inspected for clouding. […] The values reported in this study are based on clouding points measured upon increasing the temperature of the solutions.

A short description of data set [2]: Critical micelle concentration (CMC) in 0.1M Li2SO4. Format: physicochemical.
Data set [3] is described as follows: Dynamic light scattering of surfactant micelles (no polymer). Format: physicochemical. The note with it: 0.1M Li2SO4, no polymer, […]° C., center-of-mass diffusion of spheres (200 mmolal DTAB; 25 mmolal reduced FTMA).

Where two headings read alike, the source gives them in different places.

As to `CCCCCCCCCCCC[N+](C)(C)C.[Br-]` [DTAB, dodecyltrimethyl ammonium bromide], the “clouding temperature compared to solutions free of DTAB” value in data set [1] (1 mM DTAB) was “not measurably lowered”. Besides, the “lowering of clouding temperature of EHEC solutions” value in data set [1] (5 mmolal DTAB (from 32° C. to 26° C.)) was determined as 6 °C. For the same compound, the cloud point is 26-27 °C in data set [1] (5 mmolal DTAB) and 14±0.3 °C in data set [1] (DTAB concentrations near its CMC (10 mM)). The same compound had a CMC in data set [2] of 10 mM. The “hydrodynamic diameter of micelles” value in data set [3] stood at 4 nm.

These data come from patent US9592300B2, “Methods of using redox-active surfactants to control polymer interactions” (WISCONSIN ALUMNI RESEARCH FOUNDATION, priority 2005, dated 2017).
